The values that follow are results of earlier work, collected in PMC11011029, “Design and Preclinical Evaluation of a Novel Prostate-Specific Membrane Antigen Radioligand Modified with a Transthyretin Binder” (Cancers, 2024).

Data set [1] deals with PC-3 PIP/flu tumor-bearing mice. The settings on record: 24 h p.i.
Details of data set [2]: method as in PMID 29684274. To be noted: after 24 h incubation, same experimental conditions.
For data set [3], the target named is T1, PSMA (Homo sapiens, UniProt Q04609).
T1 construct: expressed in transfected cells; host or cells: PC-3 PIP cells (from Prof. Martin Pomper, Johns Hopkins)
Also on record: method as in PMID 32042329. The settings on record: read-out: PSMA-binding affinity KD.

The conditions of data set [4]: undiluted blood plasma.

T1 sequence (Q04609 whole entry): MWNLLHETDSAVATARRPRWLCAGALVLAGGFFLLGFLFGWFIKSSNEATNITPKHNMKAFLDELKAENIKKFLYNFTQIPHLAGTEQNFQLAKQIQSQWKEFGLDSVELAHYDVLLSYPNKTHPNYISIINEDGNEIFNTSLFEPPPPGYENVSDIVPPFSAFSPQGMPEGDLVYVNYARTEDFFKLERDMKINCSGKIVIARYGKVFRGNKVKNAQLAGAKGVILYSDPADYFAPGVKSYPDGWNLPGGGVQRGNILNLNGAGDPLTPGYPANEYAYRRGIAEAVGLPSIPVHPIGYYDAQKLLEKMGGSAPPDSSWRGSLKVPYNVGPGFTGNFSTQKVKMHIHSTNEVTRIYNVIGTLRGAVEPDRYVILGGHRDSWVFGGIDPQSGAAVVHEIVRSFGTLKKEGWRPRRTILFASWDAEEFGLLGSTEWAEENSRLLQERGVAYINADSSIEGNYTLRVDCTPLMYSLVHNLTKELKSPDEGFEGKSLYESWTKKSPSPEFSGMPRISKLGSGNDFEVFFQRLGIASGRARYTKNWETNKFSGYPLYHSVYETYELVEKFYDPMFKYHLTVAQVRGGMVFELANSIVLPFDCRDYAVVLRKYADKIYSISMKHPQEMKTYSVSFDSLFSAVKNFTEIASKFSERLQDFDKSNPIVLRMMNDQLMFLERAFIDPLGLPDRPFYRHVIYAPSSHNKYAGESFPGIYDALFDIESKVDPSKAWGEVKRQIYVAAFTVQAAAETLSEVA

The term logD denotes lipophilicity at a set pH, counting ionised and neutral species. The term Kd denotes the concentration at which binding is half-saturated. Take [^177Lu]Lu-PSMA-617: the logD was −4.4. In addition, the “uptake in PC-3 PIP xenografts” value in data set [1] is given as 37 ± 6 % IA/g. Moreover, the intact radioligand in data set [2] was less than 2%. The dissociation constant Kd in data set [3] was 13 ± 1 nM. Moreover, the “fraction bound to serum proteins” value in data set [4] was 59 ± 1%.
